A short description of data set [1]: Permeability of the compound by PAMPA. Type of data set: ADME. Particulars: read-out: permeability. Background: The PAMPA barrier holds no transporters, so it reflects passive diffusion.
A short description of data set [2]: Protein binding in human serum assessed as unbound fraction at 1 uM measured after 24 hrs by LC-MS/MS analysis. Type of data set: ADME, cell-free.
Data set [3] is described as follows: Protein binding in mouse serum assessed as unbound fraction at 1 uM measured after 24 hrs by LC-MS/MS analysis. Type of data set: ADME, cell-free.
Data set [4] in a line: Initial plasma concentration in Sprague-Dawley rat at 1 mg/kg, iv. Type of data set: ADME, organism-based.
Data set [5] can be described thus: Half life in Sprague-Dawley rat at 1 mg/kg, iv. Type of data set: ADME, organism-based. The settings on record: in vivo.
Data set [6] in a line: AUC (infinity) in Sprague-Dawley rat at 1 mg/kg, iv. Also noted: dose 1 mg/kg, route intravenous, time infinity. Type of data set: ADME, organism-based. The settings on record: in vivo.
A short description of data set [7]: Total clearance in Sprague-Dawley rat at 1 mg/kg, iv. Type of data set: ADME, organism-based. Particulars: in vivo.
Data set [8] can be described thus: Volume of distribution at steady state in Sprague-Dawley rat at 1 mg/kg, iv. Type of data set: ADME, organism-based. The settings on record: in vivo, read-out: Vdss.
Data set [9] in a line: Cmax in Sprague-Dawley rat at 3 mg/kg, po. Type of data set: ADME, organism-based. Also noted: dose 3 mg/kg, route oral. The settings on record: in vivo.
Data set [10] is described as follows: Tmax in Sprague-Dawley rat at 3 mg/kg, po. Type of data set: ADME, organism-based. Particulars: in vivo.
The nature of data set [11]: AUC (infinity) in Sprague-Dawley rat at 3 mg/kg, po. Type of data set: ADME, organism-based. Also noted: dose 3 mg/kg, time infinity, route oral. Particulars: in vivo.
Data set [12] is described as follows: Oral bioavailability in Sprague-Dawley rat at 3 mg/kg. Type of data set: ADME, organism-based. The settings on record: in vivo.
Data set [13] deals with Poly [ADP-ribose] polymerase 2 (Homo sapiens, UniProt Q9UGN5). Briefly: Inhibition of human recombinant N-terminal GST-tagged PARP2 (2 to 583 residues) expressed in baculovirus infected Sf9 cells assessed as reduction in auto-PARylation using histone as substrate measured after 45 mins in presence of biotinylated-NAD+ by ELISA. (In general: ELISA stands for enzyme-linked immunosorbent assay.)
Chain of Poly [ADP-ribose] polymerase 2 (Q9UGN5 whole entry, the tested form may be a part): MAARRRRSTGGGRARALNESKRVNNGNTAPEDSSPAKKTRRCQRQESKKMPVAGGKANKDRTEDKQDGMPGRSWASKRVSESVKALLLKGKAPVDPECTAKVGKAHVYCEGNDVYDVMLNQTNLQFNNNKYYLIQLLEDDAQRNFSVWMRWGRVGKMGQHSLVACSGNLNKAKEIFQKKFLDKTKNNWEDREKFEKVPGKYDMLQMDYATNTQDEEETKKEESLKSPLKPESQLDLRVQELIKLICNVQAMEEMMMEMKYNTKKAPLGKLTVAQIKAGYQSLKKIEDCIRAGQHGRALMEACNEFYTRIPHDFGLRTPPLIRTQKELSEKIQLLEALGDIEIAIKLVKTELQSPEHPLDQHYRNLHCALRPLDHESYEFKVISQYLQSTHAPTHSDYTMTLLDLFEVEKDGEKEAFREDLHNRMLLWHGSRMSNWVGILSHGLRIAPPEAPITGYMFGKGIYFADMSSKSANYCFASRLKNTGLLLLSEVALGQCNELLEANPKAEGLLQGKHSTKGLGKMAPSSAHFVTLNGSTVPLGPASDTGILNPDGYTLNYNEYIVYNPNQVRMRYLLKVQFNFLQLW

Data set [14] addresses T1, Protein mono-ADP-ribosyltransferase PARP10 (Homo sapiens, UniProt Q53GL7).
T1 sequence (Q53GL7 whole entry): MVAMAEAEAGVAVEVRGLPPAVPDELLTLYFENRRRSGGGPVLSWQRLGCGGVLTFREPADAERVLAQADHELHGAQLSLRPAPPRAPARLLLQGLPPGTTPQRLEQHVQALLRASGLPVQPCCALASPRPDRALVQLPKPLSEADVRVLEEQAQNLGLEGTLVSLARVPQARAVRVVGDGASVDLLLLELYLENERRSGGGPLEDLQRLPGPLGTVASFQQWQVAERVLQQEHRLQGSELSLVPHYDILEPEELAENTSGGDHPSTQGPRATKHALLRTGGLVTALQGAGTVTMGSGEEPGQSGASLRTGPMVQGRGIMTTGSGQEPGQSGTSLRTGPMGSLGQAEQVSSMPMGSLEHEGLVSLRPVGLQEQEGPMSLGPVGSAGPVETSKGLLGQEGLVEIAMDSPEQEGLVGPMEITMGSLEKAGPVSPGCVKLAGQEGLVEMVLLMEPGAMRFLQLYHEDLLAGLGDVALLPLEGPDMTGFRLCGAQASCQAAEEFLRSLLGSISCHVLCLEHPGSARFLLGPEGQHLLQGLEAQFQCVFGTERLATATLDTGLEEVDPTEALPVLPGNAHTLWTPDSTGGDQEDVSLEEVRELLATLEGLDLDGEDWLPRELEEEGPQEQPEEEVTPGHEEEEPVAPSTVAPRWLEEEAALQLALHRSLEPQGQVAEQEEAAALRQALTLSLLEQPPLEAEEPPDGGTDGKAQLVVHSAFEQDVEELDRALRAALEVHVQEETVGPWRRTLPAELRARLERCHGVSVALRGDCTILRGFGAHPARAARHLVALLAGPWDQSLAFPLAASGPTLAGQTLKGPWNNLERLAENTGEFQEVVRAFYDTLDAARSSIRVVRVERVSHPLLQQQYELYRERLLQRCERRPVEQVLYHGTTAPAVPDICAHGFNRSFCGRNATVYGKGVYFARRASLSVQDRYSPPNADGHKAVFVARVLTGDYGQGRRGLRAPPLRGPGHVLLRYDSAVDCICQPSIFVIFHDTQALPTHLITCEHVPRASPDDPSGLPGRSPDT
The data set can be described thus: Inhibition of human recombinant N-terminal TEV-cleavgae site-fused-FLAG/Polyhis-tagged PARP10 […] expressed in Escherichia coli assessed as reduction in auto-PARylation using histone as substrate measured after 45 mins in presence of biotinylated-NAD+ by ELISA.

Data set [15] deals with Poly [ADP-ribose] polymerase 1 (Homo sapiens, UniProt P09874).
Chain of Poly [ADP-ribose] polymerase 1 (P09874 whole entry): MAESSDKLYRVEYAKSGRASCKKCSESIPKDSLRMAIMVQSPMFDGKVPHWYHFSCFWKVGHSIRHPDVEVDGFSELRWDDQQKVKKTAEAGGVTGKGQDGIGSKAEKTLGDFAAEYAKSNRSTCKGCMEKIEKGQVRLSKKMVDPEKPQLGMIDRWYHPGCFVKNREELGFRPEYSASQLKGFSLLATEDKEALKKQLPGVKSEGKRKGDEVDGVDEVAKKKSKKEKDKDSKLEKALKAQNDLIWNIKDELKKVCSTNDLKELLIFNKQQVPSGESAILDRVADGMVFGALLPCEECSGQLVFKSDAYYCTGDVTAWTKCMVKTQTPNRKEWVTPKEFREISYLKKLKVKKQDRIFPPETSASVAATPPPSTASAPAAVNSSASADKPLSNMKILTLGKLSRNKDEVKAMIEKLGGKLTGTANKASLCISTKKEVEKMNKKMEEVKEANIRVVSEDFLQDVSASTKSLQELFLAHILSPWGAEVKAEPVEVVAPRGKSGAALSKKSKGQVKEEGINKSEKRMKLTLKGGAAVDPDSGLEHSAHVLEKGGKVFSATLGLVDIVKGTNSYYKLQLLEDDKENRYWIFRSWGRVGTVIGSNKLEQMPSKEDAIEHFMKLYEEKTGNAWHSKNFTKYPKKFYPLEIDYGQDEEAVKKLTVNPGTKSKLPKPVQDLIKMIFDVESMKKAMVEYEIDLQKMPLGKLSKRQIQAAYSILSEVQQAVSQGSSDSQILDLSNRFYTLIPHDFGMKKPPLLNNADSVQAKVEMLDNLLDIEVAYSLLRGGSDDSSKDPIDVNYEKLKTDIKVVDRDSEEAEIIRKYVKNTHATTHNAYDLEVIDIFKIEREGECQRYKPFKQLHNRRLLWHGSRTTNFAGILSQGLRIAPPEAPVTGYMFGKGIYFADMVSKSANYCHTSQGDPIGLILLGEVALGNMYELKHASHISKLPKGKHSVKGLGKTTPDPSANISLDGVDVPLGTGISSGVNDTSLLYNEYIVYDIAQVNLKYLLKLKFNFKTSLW
Description: Inhibition of recombinant human PARP1 expressed in Escherichia coli assessed as reduction in auto-PARylation using histone as substrate measured after 45 mins in presence of biotinylated-NAD+ by ELISA
The test system of the next data set is COLO 320DM. The data set can be described thus: cells. Particulars: Homo sapiens, 96 h.
A short description of data set [16]: in vitro. The settings on record: human, liver microsomes. For orientation: Liver microsomes are vesicles of endoplasmic reticulum, rich in cytochrome P450 enzymes.
Description: Stability in human liver microsomes assessed as parent compound remaining at 1 uM measured after 30 mins in presence of NADPH by LC-MS/MS analysis
Data set [17] can be described thus: in vitro. The settings on record: mouse, liver microsomes.
Description: Stability in mouse liver microsomes assessed as parent compound remaining at 1 uM measured after 30 mins in presence of NADPH by LC-MS/MS analysis
A short description of data set [18]: Cmax in ICR mouse at 50 mg/kg, ip. Type of data set: ADME, organism-based. On the set-up: dose 50 mg/kg, route intraperitoneal. The settings on record: in vivo.
Data set [19] addresses Androgen receptor (Homo sapiens) (UniProt P10275). Briefly: Displacement of [3H]Methyltrienolone from human LNCAP cells-derived androgen receptor at 10 uM measured after 20 hrs by scintillation counting method relative to control. Type of data set: cell-based.
The target in data set [20] is Cannabinoid receptor 2 (Homo sapiens) (UniProt P34972). Briefly: Displacement of [3H]WIN55212-2 from full-length recombinant human CB2 receptor expressed in human Chem1 cells at 10 uM measured after 90 mins by scintillation counting method relative to control. Type of data set: cell-based.
Chain of Cannabinoid receptor 2 (Homo sapiens) (P34972 whole entry): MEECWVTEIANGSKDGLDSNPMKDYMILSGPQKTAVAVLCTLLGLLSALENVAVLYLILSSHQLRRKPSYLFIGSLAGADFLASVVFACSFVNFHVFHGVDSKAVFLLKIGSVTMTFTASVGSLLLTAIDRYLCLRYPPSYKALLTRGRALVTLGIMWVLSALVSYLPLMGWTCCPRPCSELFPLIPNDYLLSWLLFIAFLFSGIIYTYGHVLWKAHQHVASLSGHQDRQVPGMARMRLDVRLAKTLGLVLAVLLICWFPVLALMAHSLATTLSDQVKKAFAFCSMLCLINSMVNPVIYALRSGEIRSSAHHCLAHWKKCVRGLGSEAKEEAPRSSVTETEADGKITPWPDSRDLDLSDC
Data set [21] addresses Cholecystokinin receptor type A (Homo sapiens) (UniProt P32238). The data set can be described thus: Displacement of [125I]CCK8 from full-length recombinant human CCK1 receptor expressed in human 1321N1 cells at 10 uM measured after 3 hrs by scintillation counting method relative to control. Type of data set: cell-based.
Data set [22] has as its target Delta-type opioid receptor (Homo sapiens) (UniProt P41143). The data set can be described thus: Displacement of [3H]naltrindole from full-length recombinant human DOR expressed in HEK293 cells at 10 uM measured after 60 mins by scintillation counting method relative to control. Type of data set: cell-based.
In data set [23] the target is Histamine H2 receptor (Homo sapiens) (UniProt P25021). The data set can be described thus: Displacement of [125I]aminopotentidine from full-length recombinant human H2 receptor expressed in CHOK1 cells at 10 uM measured after 120 mins by scintillation counting method relative to control. Type of data set: cell-based.
Chain of Histamine H2 receptor (Homo sapiens) (P25021 whole entry): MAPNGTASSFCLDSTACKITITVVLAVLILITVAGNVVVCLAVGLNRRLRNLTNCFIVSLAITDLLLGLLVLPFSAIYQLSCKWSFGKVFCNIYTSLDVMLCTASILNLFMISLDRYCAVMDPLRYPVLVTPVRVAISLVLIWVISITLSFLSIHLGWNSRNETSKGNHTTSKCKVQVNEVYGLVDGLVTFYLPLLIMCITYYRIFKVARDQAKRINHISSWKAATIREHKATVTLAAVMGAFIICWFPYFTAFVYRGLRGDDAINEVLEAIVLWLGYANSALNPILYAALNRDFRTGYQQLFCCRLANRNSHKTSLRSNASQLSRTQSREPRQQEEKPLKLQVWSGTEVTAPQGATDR
The target in data set [24] is Muscarinic acetylcholine receptor M3 (Homo sapiens) (UniProt P20309). The data set can be described thus: Displacement of [3H]N-Methylscopolamine from full-length recombinant human M3 receptor expressed in CHOK1 cells at 10 uM measured after 120 mins by scintillation counting method relative to control. Type of data set: cell-based.
Chain of Muscarinic acetylcholine receptor M3 (Homo sapiens) (P20309 whole entry, looked up): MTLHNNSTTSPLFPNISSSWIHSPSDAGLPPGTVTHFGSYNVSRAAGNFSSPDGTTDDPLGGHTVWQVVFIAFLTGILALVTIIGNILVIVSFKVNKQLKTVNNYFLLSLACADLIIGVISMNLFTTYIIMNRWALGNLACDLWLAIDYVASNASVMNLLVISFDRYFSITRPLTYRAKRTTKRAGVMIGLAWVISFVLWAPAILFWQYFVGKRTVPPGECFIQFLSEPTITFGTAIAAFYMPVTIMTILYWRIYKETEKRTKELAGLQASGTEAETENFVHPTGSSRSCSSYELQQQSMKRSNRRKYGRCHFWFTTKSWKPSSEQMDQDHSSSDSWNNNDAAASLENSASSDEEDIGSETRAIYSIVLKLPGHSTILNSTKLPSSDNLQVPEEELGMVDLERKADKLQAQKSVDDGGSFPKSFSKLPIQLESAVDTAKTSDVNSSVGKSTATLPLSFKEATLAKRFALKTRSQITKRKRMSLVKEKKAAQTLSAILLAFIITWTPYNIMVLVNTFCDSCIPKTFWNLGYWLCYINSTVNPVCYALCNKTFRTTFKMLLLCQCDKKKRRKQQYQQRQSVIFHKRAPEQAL
Data set [25] addresses Sodium-dependent serotonin transporter (Homo sapiens) (UniProt P31645). Briefly: Displacement of [3H]paroxetine from full-length recombinant human SET receptor expressed in HEK293 cells at 10 uM measured after 60 mins by scintillation counting method relative to control. Type of data set: cell-based.
The target of data set [26] is Vasopressin V1a receptor (Homo sapiens) (UniProt P37288). Briefly: Displacement of [125I]Phenylacetyl-D-Tyr(Me)-Phe-Gln-Asn-Arg-Pro-Arg-Tyr-NH2 from full-length recombinant human V1A receptor expressed in HEK293 cells at 10 uM measured after 120 mins by scintillation counting method relative to control. Type of data set: cell-based.
Chain of Vasopressin V1a receptor (Homo sapiens) (P37288 whole entry, looked up): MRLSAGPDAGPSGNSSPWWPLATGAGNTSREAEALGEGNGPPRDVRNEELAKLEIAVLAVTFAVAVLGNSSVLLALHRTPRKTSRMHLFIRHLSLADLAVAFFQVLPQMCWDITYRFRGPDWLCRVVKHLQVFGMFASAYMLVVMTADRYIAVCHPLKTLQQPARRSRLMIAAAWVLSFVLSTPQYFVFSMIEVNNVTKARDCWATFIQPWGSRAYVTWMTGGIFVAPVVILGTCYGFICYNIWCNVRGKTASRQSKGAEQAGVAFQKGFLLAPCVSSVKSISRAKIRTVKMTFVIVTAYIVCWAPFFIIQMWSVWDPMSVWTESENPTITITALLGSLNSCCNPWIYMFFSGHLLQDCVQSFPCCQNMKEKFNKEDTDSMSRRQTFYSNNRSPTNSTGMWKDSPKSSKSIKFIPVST

Chain of Androgen receptor (Homo sapiens) (P10275 whole entry): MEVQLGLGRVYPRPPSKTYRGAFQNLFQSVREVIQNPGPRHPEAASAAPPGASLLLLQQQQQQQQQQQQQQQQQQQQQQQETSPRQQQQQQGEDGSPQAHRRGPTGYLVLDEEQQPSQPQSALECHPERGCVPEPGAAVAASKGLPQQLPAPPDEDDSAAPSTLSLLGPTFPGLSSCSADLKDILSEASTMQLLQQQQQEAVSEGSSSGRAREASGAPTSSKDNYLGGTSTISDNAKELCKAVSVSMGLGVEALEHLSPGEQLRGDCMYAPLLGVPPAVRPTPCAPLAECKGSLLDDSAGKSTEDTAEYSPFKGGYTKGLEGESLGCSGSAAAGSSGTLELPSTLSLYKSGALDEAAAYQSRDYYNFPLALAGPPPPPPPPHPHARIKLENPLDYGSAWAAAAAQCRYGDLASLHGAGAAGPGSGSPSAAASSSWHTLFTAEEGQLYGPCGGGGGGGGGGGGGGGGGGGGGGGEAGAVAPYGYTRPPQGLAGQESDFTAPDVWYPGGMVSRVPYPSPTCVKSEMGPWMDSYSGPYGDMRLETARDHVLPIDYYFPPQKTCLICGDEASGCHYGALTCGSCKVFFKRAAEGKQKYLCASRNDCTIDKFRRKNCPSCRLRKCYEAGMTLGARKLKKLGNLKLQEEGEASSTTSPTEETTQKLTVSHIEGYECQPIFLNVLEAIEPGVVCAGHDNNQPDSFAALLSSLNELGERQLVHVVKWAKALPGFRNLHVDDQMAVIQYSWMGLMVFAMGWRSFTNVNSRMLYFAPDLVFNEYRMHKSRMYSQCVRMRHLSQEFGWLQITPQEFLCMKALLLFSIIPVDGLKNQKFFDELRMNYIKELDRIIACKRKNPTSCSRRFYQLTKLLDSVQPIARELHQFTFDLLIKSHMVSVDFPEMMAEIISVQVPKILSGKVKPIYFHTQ
Chain of Sodium-dependent serotonin transporter (Homo sapiens) (P31645 whole entry, looked up): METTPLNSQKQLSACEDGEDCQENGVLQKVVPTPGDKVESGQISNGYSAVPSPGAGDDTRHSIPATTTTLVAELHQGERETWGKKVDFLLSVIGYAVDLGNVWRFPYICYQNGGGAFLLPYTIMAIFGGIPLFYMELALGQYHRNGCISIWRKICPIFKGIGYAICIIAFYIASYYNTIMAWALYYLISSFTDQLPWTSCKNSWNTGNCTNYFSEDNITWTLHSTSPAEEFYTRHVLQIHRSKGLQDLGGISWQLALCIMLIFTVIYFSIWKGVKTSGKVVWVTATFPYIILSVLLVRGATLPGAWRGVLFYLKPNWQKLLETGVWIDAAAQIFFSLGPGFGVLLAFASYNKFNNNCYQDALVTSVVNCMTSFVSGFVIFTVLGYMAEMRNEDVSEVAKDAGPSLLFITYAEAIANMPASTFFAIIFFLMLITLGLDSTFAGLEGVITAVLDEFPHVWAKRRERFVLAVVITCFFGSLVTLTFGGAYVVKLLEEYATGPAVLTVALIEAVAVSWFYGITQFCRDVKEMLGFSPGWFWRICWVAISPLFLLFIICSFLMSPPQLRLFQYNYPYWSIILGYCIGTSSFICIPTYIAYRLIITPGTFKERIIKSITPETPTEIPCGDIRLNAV
Description for COLO 320DM: Antiproliferative activity against human COLO320DM cells assessed as inhibition of cell growth measured after 4 days by CellTiter-Glo assay

Usually fraction unbound stands for the share of the substance not bound to proteins or other matrix. One may read the half-life as the time in which the quantity being followed falls by half. In general, AUC(0-inf) refers to the area under the concentration-time curve extrapolated to infinity. The low end stands for low exposure, the high end for high exposure. The term clearance denotes the rate of elimination divided by the concentration. A low value points to a low capacity for elimination. What is called Cmax is the highest concentration seen after dosing. For orientation: Tmax means the time at which the peak concentration occurs. Usually bioavailability stands for dose-corrected exposure relative to a reference, in per cent. A high value points to good availability. Broadly, the IC50 is the point on the concentration scale where inhibition reaches its midpoint. By GI50 is commonly meant the concentration giving 50% growth inhibition. The term share remaining denotes the share of the starting amount still present when the sample was taken. Turning to `COc1ccccc1N1CCN(c2nc3c(c(=O)[nH]2)CCCC3)CC1`, the Papp in data set [1] is 0.34 ×10⁻⁶ cm/s. Moreover, the fraction unbound at 24 h, 1 µM is 0.043 in data set [2] and 0.029 in data set [3]. The compound also had a C0 in data set [4] of 1000 nM. This compound had a half-life in data set [5] of 13 h. Also, the AUC(0-inf) in data set [6] came to 0.72 µM·h; in [11] it was 1.27 µM·h. This compound also gave a clearance in [7] of 68 mL/min/kg. Besides, the Vd in data set [8] turned out to be 58.9 L/kg. In data set [9], this compound showed a Cmax of 120 nM. For the same compound, in data set [10], the Tmax came to 0.5 h. Besides, the bioavailability in data set [12] stood at 59.7%. Further, the concentration for half-maximal inhibition (IC50) in data set [13] is 2.23 µM; in data set [14], 10.2 µM; in data set [15], 20 to 100 µM. The GI50 in the data set on COLO 320DM came to 3.2 µM. Also, the fraction remaining at 0.5 h, 1 µM in “in vitro [16]” was 84.1%; in the data set “in vitro [17]”, 0%.
As a reminder, the inhibition is the percentage by which the read-out fell short of the control. As to `O=c1[nH]c(N2CCC3(CC2)CN(CCO)c2cc(F)cc(F)c23)nc2c1CCCC2`, the Cmax is 199000 nM in data set [18] and 2280 nM in data set [9]. In addition, the values for the fraction unbound at 24 h, 1 µM in data set [2] and in [3] were 0.004 and 0.015, respectively. The compound also gave a C0 in data set [4] of 9840 nM. This compound also had a half-life in data set [5] of 3.5 h. The AUC(0-inf) in [6] was 4.42 µM·h; in data set [11], 7.92 µM·h. In addition, the clearance in data set [7] is 9 mL/min/kg. The Vd in data set [8] turned out to be 0.59 L/kg. Besides, the Tmax in data set [10] is 0.25 h. This compound also yielded a bioavailability in data set [12] of 59.8%. Also, the IC50 in data set [13] was 2.72 µM; in data set [14], 19.8 µM; in data set [15], 20 to 100 µM. In addition, the inhibition in data set [19], in data set [20], in data set [21], in [22], in [23] and in data set [24] was over 20% each time. Moreover, the inhibition in data set [25] and in [26] was over 20% each time. For the same compound, growth in the data set with COLO 320DM was halved (GI50) at 1.6 µM. Also, the amount remaining at 0.5 h, 1 µM came to 5.9% in “in vitro [16]” and 18.3% in the data set “in vitro [17]”.

The values above are taken from ChEMBL document CHEMBL4387706, “Discovery of Novel Spiroindoline Derivatives as Selective Tankyrase Inhibitors” (J Med Chem, 2019).
